By pIC50 is commonly meant −log10 of the IC50, conventionally taken in molar units. Low readings indicate a large IC50, high ones a small IC50.

The record followed here is US10377770B2 (Novartis AG, priority 2015, dated 2019).

pIC50: −log10 of the molar value.

This experiment has as its target C-Raf FL (full length CRAF with Y340E and Y341E activating mutations, co-expressed with h14-3-3 zeta) (Homo sapiens (Human), UniProt P04049, Y340E/Y341E). Nature of the experiment: In vitro Raf activity determination, AlphaScreen p-MEK readout, c-Raf (C-Raf FL). To be noted: c-Raf approximately 4 nM, ATP 1 μM, pre-incubation 60 minutes, reaction 1 hour. Format: biochemical. An outline of the steps:
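Phosphorylation of kinase-dead biotinylated MEK1 (~10 nM) by C-Raf FL (~4 nM) read by AlphaScreen luminescence with anti-phospho-MEK1/2 after EDTA stop. ATP was 1 μM, with a 1 h reaction at room temperature. Compounds were pre-incubated with enzyme and substrate for 60 min in Tris/MgCl2 buffer, pH 7.5.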
(In Alpha technology, singlet oxygen from a donor bead excites a nearby acceptor bead.)

Sequence of C-Raf FL (full length CRAF with Y340E and Y341E activating mutations, co-expressed with h14-3-3 zeta) (P04049 whole entry Y340E/Y341E): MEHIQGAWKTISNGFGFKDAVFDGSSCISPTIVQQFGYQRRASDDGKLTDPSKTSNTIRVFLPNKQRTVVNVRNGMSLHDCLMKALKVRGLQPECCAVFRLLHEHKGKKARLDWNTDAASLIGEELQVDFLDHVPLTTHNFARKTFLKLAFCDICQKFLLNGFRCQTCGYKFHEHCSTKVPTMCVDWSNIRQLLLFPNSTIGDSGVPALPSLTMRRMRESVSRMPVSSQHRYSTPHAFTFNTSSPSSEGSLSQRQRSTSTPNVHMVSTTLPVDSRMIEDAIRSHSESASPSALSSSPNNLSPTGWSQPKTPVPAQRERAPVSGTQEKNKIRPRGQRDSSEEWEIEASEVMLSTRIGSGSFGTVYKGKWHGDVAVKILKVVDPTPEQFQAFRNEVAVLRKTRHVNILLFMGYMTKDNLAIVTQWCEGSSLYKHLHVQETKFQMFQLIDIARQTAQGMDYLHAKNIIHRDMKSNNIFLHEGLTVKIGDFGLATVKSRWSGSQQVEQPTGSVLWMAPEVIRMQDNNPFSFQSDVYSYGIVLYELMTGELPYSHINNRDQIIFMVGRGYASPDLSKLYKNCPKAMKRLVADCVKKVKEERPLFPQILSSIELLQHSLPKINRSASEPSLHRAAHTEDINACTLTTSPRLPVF
Sequence of C-Raf FL (full length CRAF with Y340E and Y341E activating mutations, co-expressed with h14-3-3 zeta) (P63104 whole entry partner): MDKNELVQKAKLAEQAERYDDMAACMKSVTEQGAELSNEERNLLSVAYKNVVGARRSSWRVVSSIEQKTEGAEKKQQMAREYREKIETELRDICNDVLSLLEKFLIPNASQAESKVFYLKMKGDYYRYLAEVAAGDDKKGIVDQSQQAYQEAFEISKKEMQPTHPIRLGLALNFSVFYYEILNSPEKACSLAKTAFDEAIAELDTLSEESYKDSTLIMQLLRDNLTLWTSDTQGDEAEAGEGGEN

Turning to `CCN1C(=O)Cc2nncn2-c2cc(-c3cc(NC(=O)c4cccc(C(F)(F)F)c4)cnc3C)cnc21` [Example 238, N-(5-(6-ethyl-5-oxo-5,6-dihydro-4H-pyrido[2,3-b][1,2,4]triazo1o[4,3-d][1,4]diazepin-9-yl)-6-methylpyridin-3-yl)-3-(trifluoromethyl) benzamide], the pIC50 is 8.57.
For `CCN1C(=O)C[C@@H]2COCCN2c2cc(-c3cc(NC(=O)c4ccnc(C(F)(F)F)c4)ccc3C)cnc21` [Example 129, (R)-N-(3-(7-Ethyl-6-oxo-1,2,4a,5,6,7-hexahydro-4H-[1,4]oxazino[4,3-d]pyrido[2,3-b][1,4]diazepin-10-yl)-4-methylphenyl)-2-(trifluoromethyl)isonicotinamide], the pIC50 is 9.74.
For `Cc1ccc(NC(=O)c2ccnc(C(C)(F)F)c2)cc1-c1ccc2c(c1)N1CCOC[C@@H]1C[C@H]2O` (single isomer, unassigned) [Example 20] the value was 10.60; for `Cc1ccc(NC(=O)c2ccnc(C(F)(F)F)c2)cc1-c1cnc2c(c1)[C@@H]1CCOC[C@H]1C(=O)N2C(C)C` [Example 261, N-(3-((4aS, 10bR)-6-isopropyl-5-oxo-2,4,4a,5,6,10b-hexahydro-1H-pyrano[3,4-c][1,8]naphthyridin-9-yl)-4-methylphenyl)-2 (trifluoromethyl) isonicotinamide], 9.70; for `Cc1ccc(NC(=O)c2cc(C(C)(C)N)cc(C(F)(F)F)c2)cc1-c1ccc2c(c1)N1CCOC[C@H]1[C@](F)(CO)C2` [Example 392, 3-(2-aminopropan-2-yl)-N-(3-((4aS,5S)-5-fluoro-5-(hydroxymethyl)-1,2,4,4a.5,6-hexahydro-[1,4]oxazino[4,3-a]quinolin-9-yl)-4-methylphenyl)-5-(trifluoromethyl)benzamide], 8.47.
For `Cc1ccc(NC(=O)c2ccnc(C(C)(F)F)c2)cc1-c1ccc2c(c1)N1CCOC[C@H]1C[C@H]2O` [Example 13, 2-(1,1-difluoroethyl)-N-(3-((4aR,6R)-6-hydroxy-1,2,4,4a,5,6-hexahydro-[1,4]oxazino[4,3-a]quinolin-9-yl)-4-methylphenyl)isonicotinamide] the value was 11.26; for `Cc1ccc(NC(=O)c2ccnc(C(F)(F)F)c2F)cc1-c1cc2n(c(=O)c1)CC[C@H]1COCCN21` [Example 416, (S)-3-fluoro-N-(4-methyl-3-(8-oxo-1,2,4,4a,5,6-hexahydro-8H-pyrido[2′,1′:2,3]pyrimido[6,1-c][1,4]oxazin-10-yl)phenyl)-2-(trifluoromethyl)isonicotinamide], 9.40; for `CO[C@@H]1C[C@@H]2COCCN2c2cc(-c3cc(NC(=O)c4ccnc(C(C)(F)F)c4)cnc3C)ccc21` (racemic) [Example 31, (rac)-(trans)-2-(1,1-difluoroethyl)-N-(5-(6-methoxy-1,2,4,4a,5,6-hexahydro-[1,4]oxazino[4,3-a]quinolin-9-yl)-6-methylpyridin-3-yl)isonicotinamide], 10.48.
`CCN1C[C@@H]2COCCN2c2cc(-c3cc(NC(=O)c4ccnc(C(F)(F)F)c4F)ccc3C)cnc2C1=O` [Example 503] had a negative-log IC50 (pIC50) of 10.00.
On to `Cc1ccc(NC(=O)c2ccnc(C(F)(F)F)c2)cc1-c1ccc2c(c1)N1CCOCC1CC2` (racemic) [Example 21, (rac)-N-(3-(1,2,4,4a,5,6-hexahydro-[1,4]oxazino[4,3-a]quinolin-9-yl)-4-methylphenyl)-2-(trifluoromethyl)isonicotinamide], for which the pIC50 is 11.92.
Turning to `CCN1C(=O)[C@@H]2[C@H]3COC[C@H]3[C@@H]2c2cc(-c3cc(NC(=O)c4cccc(C(F)(F)F)c4)cnc3C)cnc21` [Example 272, N-(5-((6aS, 6bS, 9aS, 9bS)-5-ethyl-6-oxo-5,6,6a,6b,7,9,9a,9b-octahydrofuro[3′,4′: 3,4]cyclobuta[1,2-c][1,8]naphthyridin-2-yl)-6-methylpyridin-3-yl)-3-(trifluoromethyl) benzamide], the pIC50 was 9.30.
For `Cc1ncc(NC(=O)c2cccc(C(F)(F)F)c2)cc1-c1ccc2c(c1)N1CCOCC1C1(COC1)C2` (racemic) [Example 56, (rac)-N-(6-methyl-5-(2,4,4a,6-tetrahydro-1H-spiro[[1,4]oxazino[4,3-a]quinoline-5,3′-oxetan]-9-yl)pyridin-3-yl)-3-(trifluoromethyl)benzamide] the value was 10.15.
For `Cc1ccc(NC(=O)c2ccnc(C(C)(F)F)c2)cc1-c1cnc2c(c1)N1CCOC[C@H]1C(C)(C)[C@@H]2O` (racemic) [Example 160, rac-cis-2-(1,1-difluoroethyl)-N-(3-(6-hydroxy-5,5-dimethyl-1,2,4,4a,5,6-hexahydro-[1,4]oxazino[4,3-a][1,5]naphthyridin-9-yl)-4-methylphenyl)isonicotinamide] the value was 10.57; for `Cc1ccc(NC(=O)c2ccnc(C(C)(F)F)c2)cc1-c1cnc2c(c1)N1CCOC[C@H]1C(C)(C)[C@H]2O` [Example 161, 2-(1,1-difluoroethyl)-N-(3-((4aR,6R)-6-hydroxy-5,5-dimethyl-1,2,4,4a,5,6-hexahydro-[1,4]oxazino[4,3-a][1,5]naphthyridin-9-yl)-4-methylphenyl)isonicotinamide], 10.10.
The molecule `CCOC(=O)c1c2n(c3cc(-c4cc(NC(=O)c5ccnc(C(F)(F)F)c5)ccc4C)ccc3c1=O)CCOC2` [Example 1, ethyl 9-(2-methyl-5-(2-(trifluoromethyl)isonicotinamido)phenyl)-6-oxo-1,2,4,6-tetrahydro-[1,4]oxazino[4,3-a]quinoline-5-carboxylate] gave a pIC50 of 10.35.
Then `Cc1ccc(NC(=O)c2ccnc(C(F)(F)F)c2F)cc1-c1ccc2c(c1)N1CCOC[C@H]1[C@](F)(CO)C2` [Example 380, 3-fluoro-N-(3-((4aS,5S)-5-fluoro-5-(hydroxymethyl)-1,2,4,4a,5,6-hexahydro-[1,4)oxazino[4,3-a]quinolin-9-yl)-4-methylphenyl)-2-(trifluoromethyl)isonicotinamide], with 9.40.
For `Cc1ccc(NC(=O)c2ccnc(C(F)(F)F)c2)cc1-c1cnc2c(c1)N1CCOC[C@H]1C[C@H]2OCCO` [Example 508, N-(3-((4aR,6R)-6-(2-hydroxyethoxy)-1,2,4,4a,5,6-hexahydro-[1,4]oxazino[4,3-a][1,5]naphthyridin-9-yl)-4-methylphenyl)-2-(trifluoromethyl)iso-nicotinamide] the value was 9.70; for `Cc1ncc(NC(=O)c2ccnc(C(C)(F)F)c2)cc1-c1ccc2c(c1)N1CCOC[C@H]1[C@](F)(CO)C2` [Example 84, 2-(1,1-difluoroethyl)-N-(5-((4aS,5S)-5-fluoro-5-(hydroxymethyl)-1,2,4,4a,5,6-hexahydro-[1,4]oxazino[4,3-a]quinolin-9-yl)-6-methylpyridin-3-yl)isonicotinamide], 9.00; for `Cc1ccc(NC(=O)c2ccnc(C(C)(F)F)c2)cc1-c1cnc2c(c1)N1CCOC[C@H]1[C@H](CO)C2` [Example 117, 2-(1,1-Difluoroethyl)-N-(3-((4aR,5R)-5-(hydroxymethyl)-1,2,4,4a,5,6-hexahydro-[1,4]oxazino[4,3-a][1,5]naphthyridin-9-yl)-4-methylphenyl)isonicotinamide], 11.33.
Then `Cc1ncc(NC(=O)c2cccc(C(F)(F)F)c2)cc1-c1ccc2c(c1)N1CCOCC[C@H]1C[C@H]2O` [Example 446, N-(5-((5aS,7R)-7-hydroxy-1,2,5,5a,6,7-hexahydro-4H-[1,4]oxazepino [4,5-a]quinolin-10-yl)-6-methylpyridin-3-yl)-3-(trifluoro-methyl)benzamide], with 9.15; and `Cc1ccc(NC(=O)c2ccnc(C(C)(F)F)c2)cc1-c1cnc2c(c1)[C@@H]1CCOC[C@H]1C(=O)N2CC(C)(C)O` [Example 287, 2-(1,1-difluoroethyl)-N-(3-((4aS,10bR)-6-(2-hydroxy-2-methylpropyl)-5-oxo-2,4,4a,5,6,10b-hexahydro-1H-pyrano[3,4-c][1,8]naphthyridin-9-yl)-4-methylphenyl) isonicotinamide], with 9.70; and `Cc1ccc(NC(=O)c2ccnc(C(F)(F)F)c2)cc1-c1cnc2c(c1)N1CCOC[C@@H]1[C@@](C)(C#N)C2` [Example 378, N-(3-((4aS,5S)-5-cyano-5-methyl-1,2,4,4a,5,6-hexahydro-[1,4]oxazino[4,3-a][1,5]naphthyridin-9-yl)-4-methylphenyl)-2-(trifluoromethyl)isonicotinamide], with 9.70.
Take `Cc1ccc(NC(=O)c2ccnc(C(F)(F)F)c2)cc1-c1cnc2c(c1)N1CCOC[C@@H]1C[C@@H]2OCCO` [Example 509, N-(3-((4aS,6S)-6-(2-hydroxyethoxy)-1,2,4,4a,5,6-hexahydro-[1,4]oxazino[4,3-a][1,5]naphthyridin-9-yl)-4-methylphenyl)-2-(trifluorometh-yl)isonicotinamide]: the negative logarithm of the IC50 (pIC50) was 9.70.
As for `CCN1C(=O)CC2CCOCCN2c2cc(-c3cc(NC(=O)c4ccnc(C(F)(F)F)c4)ccc3C)cnc21` (stereo not shown) [Example 314, N-(3-(8-ethyl-7-oxo-1,2,4,5,5a,6,7,8-octahydropyrido[3′, 2′:2,3][1,4]diazepino [1,7-d][1,4]oxazepin-11-yl)-4-methylphenyl)-2-(trifluoromethyl) isonicotinamide], the pIC50 is 9.22.
Then `CCN1C(=O)[C@@H]2COCC[C@H]2c2cc(-c3cc(NC(=O)c4cccc(C(F)(F)F)c4F)cnc3C)cnc21` [Example 256, N-(5-((4aS, 10bR)-6-ethyl-5-oxo-2,4,4a,5,6,10b-hexahydro-1H-pyrano[3,4-c][1,8]naphthyridin-9-yl)-6-methylpyridin-3-yl)-2-fluoro-3-(trifluoromethyl) benzamide], with 10.00.
